Tested on: Sphaerotheca fuliginea
Test: Sphaerotheca test (cucumber)/protective
Assay type: in vivo
Settings: Podosphaera fuliginea, 168 h, protective, application rate 100 g/ha, evaluation 7 days after inoculation, read-out: Efficacy in %
Description: (§1) [table] To produce a suitable preparation of active compound, one part by weight of active compound is mixed with the stated amounts of solvent and emulsifier, and the concentrate is diluted with water to the desired concentration. To test for protective activity, young plants are sprayed with the preparation of active compound at the stated application rate. After the spray coating has dried on, the plants are inoculated with an aqueous spore suspension of Sphaerotheca fuliginea. The plants are then placed in a greenhouse at about 23° C. and a relative atmospheric humidity of about 70%. Evaluation is carried out 7 days after the inoculation. 0% means an efficacy which corresponds to that of the control, whereas an efficacy of 100% means that no infection is observed.

Point of comparison: C[Si](C)(C)CCc1sccc1NC(=O)c1ccsc1I [drawing 184], pest or weed control at 100 g/ha 100%. Against it:
- CC(C)CC(C)c1ccccc1NC(=O)c1ccsc1I (stereo not shown) [drawing 152] — lower, 98%
- CC(CC(C)(C)C)c1ccccc1NC(=O)c1ccoc1I (stereo not shown) [drawing 153] — lower, 98%
- CC(CC(C)(C)C)c1ccccc1NC(=O)c1ccsc1I (stereo not shown) [drawing 154] — the same, 100%
- O=C(Nc1ccccc1-c1ccc(C(F)(F)F)cc1Cl)c1ccsc1I [drawing 155] — the same, 100%
- O=C(Nc1ccncc1-c1ccc(Cl)c(Cl)c1)c1ccsc1I [drawing 156] — the same, 100%
- O=C(Nc1ccccc1-c1ccc(Br)cc1Cl)c1ccsc1I [drawing 157] — the same, 100%
- O=C(Nc1ccccc1-c1ccc(Br)c(F)c1)c1ccsc1I [drawing 158] — the same, 100%
- O=C(Nc1ccccc1-c1ccc(Br)c(Cl)c1)c1ccsc1I [drawing 159] — the same, 100%
- O=C(Nc1ccccc1-c1cccc(Cl)c1Cl)c1ccsc1I [drawing 160] — the same, 100%
- O=C(Nc1ccccc1-c1cccc(Cl)c1F)c1ccsc1I [drawing 161] — the same, 100%
- O=C(Nc1ccc(F)cc1-c1cccc(Cl)c1F)c1ccsc1I [drawing 162] — the same, 100%
- CC(C)(C)CCc1cc(F)ccc1NC(=O)c1ccsc1I [drawing 163] — the same, 100%
- O=C(Nc1ccccc1-c1ccc(Cl)cc1)c1ccoc1I [drawing 164] — the same, 100%
- O=C(Nc1ccccc1-c1ccc(Br)cc1)c1ccoc1I [drawing 165] — the same, 100%
- O=C(Nc1ccccc1-c1ccc(Cl)c(Cl)c1)c1ccoc1I [drawing 166] — the same, 100%
- O=C(Nc1ccccc1-c1ccc(Cl)c(F)c1)c1ccoc1I [drawing 167] — lower, 98%
- O=C(Nc1ccccc1-c1ccc(Cl)cc1)c1ccsc1I [drawing 168] — lower, 95%
- O=C(Nc1ccccc1-c1ccc(Br)cc1)c1ccsc1I [drawing 169] — the same, 100%
- O=C(Nc1ccccc1-c1ccc(Cl)c(F)c1)c1ccsc1I [drawing 170] — lower, 98%
- CC(C[Si](C)(C)C)c1ccccc1NC(=O)c1ccoc1I (stereo not shown) [drawing 171] — the same, 100%
- O=C(Nc1ccccc1-c1ccc(C(F)(F)F)cc1)c1ccsc1I [drawing 172] — lower, 93%
- O=C(Nc1ccc(F)cc1-c1ccc(Cl)c(Cl)c1)c1ccsc1I [drawing 173] — the same, 100%
- Cc1ccc(-c2ccccc2NC(=O)c2ccsc2I)cc1F [drawing 174] — the same, 100%
- CC(C)CC(C)c1cc(F)ccc1NC(=O)c1ccsc1I (stereo not shown) [drawing 175] — lower, 97%
- CO/N=C/c1ccc(-c2ccccc2NC(=O)c2ccsc2I)cc1F [drawing 176] — lower, 98%
- CC(C)CC(C)c1sccc1NC(=O)c1ccsc1I (stereo not shown) [drawing 177] — lower, 92%
- CC(C)CC(C)c1ccccc1NC(=O)c1ccsc1Br (stereo not shown) [drawing 178] — the same, 100%
- CC(CC(C)(C)C)c1ccccc1NC(=O)c1ccsc1Br (stereo not shown) [drawing 179] — lower, 97%
- O=C(Nc1ccccc1-c1ccc(Cl)cc1)c1ccsc1Br [drawing 180] — the same, 100%
- O=C(Nc1ccccc1-c1ccc(Cl)c(Cl)c1)c1ccsc1Br [drawing 181] — the same, 100%
- O=C(Nc1ccccc1-c1ccc(Cl)c(F)c1)c1ccsc1Br [drawing 182] — the same, 100%
- O=C(Nc1ccccc1-c1ccc(F)c(Cl)c1)c1ccsc1I [drawing 183] — the same, 100%

Tested on: Venturia inaequalis
Test: Venturia test (apple)/protective
Assay type: in vivo
Settings: 240 h, protective, application rate 100 g/ha, evaluation 10 days after inoculation, read-out: Efficacy in %
Description: as §1, with “amount” for “amounts”, “conidia” for “spore”, “the apple scab pathogen Venturia inaequalis and then remain in an incubation cabin at about 20° C. and 100% relative atmospheric humidity for 1 day.” for “Sphaerotheca fuliginea.”, “21°” for “23°”, “90%.” for “70%.”, “10” for “7”

Point of comparison: C[Si](C)(C)CCc1sccc1NC(=O)c1ccsc1I [drawing 221], pest or weed control at 100 g/ha 100%. Against it:
- O=C(Nc1ccccc1-c1ccc(Cl)c(F)c1)c1ccsc1Br [drawing 219] — the same, 100%
- O=C(Nc1ccccc1-c1ccc(F)c(Cl)c1)c1ccsc1I [drawing 220] — the same, 100%

Tested on: Puccinia recondita
Test: Puccinia test (wheat)/protective
Assay type: in vivo
Settings: 240 h, protective, application rate 500 g/ha, evaluation 10 days after inoculation, read-out: Efficacy in %
Description: [table] To produce a suitable preparation of active compound, 1 part by weight of active compound is mixed with the stated amounts of solvent and emulsifier, and the concentrate is diluted with water to the desired concentration. To test for protective activity, young plants are sprayed with the preparation of active compound at the stated application rate. After the spray coating has dried on, the plants are sprayed with a conidia suspension Puccinia recondita. The plants remain in an incubation cabin at 20° C. and 100% relative atmospheric humidity for 48 hours. The plants are then placed in a greenhouse at a temperature of about 20° C. and a relative atmospheric humidity of 80% to promote the development of rust pustules. Evaluation is carried out 10 days after the inoculation. 0% means an efficacy which corresponds to that of the control, whereas an efficacy of 100% means that no infection is observed.

Point of comparison: C[Si](C)(C)CCc1ccccc1NC(=O)c1ccsc1I [drawing 262], pest or weed control at 500 g/ha 97%. Against it:
- CC(C)CC(C)c1ccccc1NC(=O)c1ccsc1I (stereo not shown) [drawing 260] — higher, 100%
- CC(C)CC(C)c1ccccc1NC(=O)c1ccoc1I (stereo not shown) [drawing 261] — higher, 100%
- CC(C)(C)CCc1ccccc1NC(=O)c1ccsc1I [drawing 263] — the same, 97%
- O=C(Nc1ccccc1-c1ccc(Br)c(F)c1)c1ccsc1I [drawing 264] — higher, 100%
- O=C(Nc1ccccc1-c1ccc(Br)c(Cl)c1)c1ccsc1I [drawing 265] — higher, 100%
- CC(C)(C)CCc1cc(F)ccc1NC(=O)c1ccsc1I [drawing 266] — higher, 100%
- O=C(Nc1ccccc1-c1ccc(Cl)cc1)c1ccoc1I [drawing 267] — higher, 100%
- O=C(Nc1ccccc1-c1ccc(Br)cc1)c1ccoc1I [drawing 268] — higher, 100%
- CC(CC(C)(C)C)c1ccccc1NC(=O)c1ccoc1I (stereo not shown) [drawing 269] — higher, 100%
- O=C(Nc1ccccc1-c1ccc(Cl)c(F)c1)c1ccoc1I [drawing 270] — higher, 100%
- O=C(Nc1ccccc1-c1ccc(Cl)c(Cl)c1)c1ccsc1I [drawing 271] — higher, 100%
- CC(CC(C)(C)C)c1ccccc1NC(=O)c1ccsc1I (stereo not shown) [drawing 272] — higher, 100%
- C=C(CC(C)(C)C)c1ccccc1NC(=O)c1ccsc1I [drawing 273] — lower, 93%
- O=C(Nc1ccccc1-c1ccc(Cl)c(F)c1)c1ccsc1I [drawing 274] — lower, 94%
- CC(C[Si](C)(C)C)c1ccccc1NC(=O)c1ccoc1I (stereo not shown) [drawing 275] — higher, 100%
- CC(C[Si](C)(C)C)c1ccccc1NC(=O)c1ccsc1I (stereo not shown) [drawing 276] — higher, 100%
- O=C(Nc1ccc(F)cc1-c1ccc(Cl)c(Cl)c1)c1ccsc1I [drawing 277] — higher, 100%
- CC1CC(C)(C)c2cccc(NC(=O)c3ccsc3I)c21 (stereo not shown) [drawing 278] — higher, 100%
- CC(C)CC(C)c1cc(F)ccc1NC(=O)c1ccsc1I (stereo not shown) [drawing 279] — higher, 100%
- CO/N=C/c1ccc(-c2ccccc2NC(=O)c2ccsc2I)cc1F [drawing 280] — higher, 100%
- CC(C)CC(C)c1sccc1NC(=O)c1ccsc1I (stereo not shown) [drawing 281] — higher, 100%
- CC(C)CC(C)c1ccccc1NC(=O)c1ccsc1Br (stereo not shown) [drawing 282] — higher, 100%
- CC(CC(C)(C)C)c1ccccc1NC(=O)c1ccsc1Br (stereo not shown) [drawing 283] — higher, 100%
- O=C(Nc1ccccc1-c1ccc(Cl)c(Cl)c1)c1ccsc1Br [drawing 284] — higher, 100%
- O=C(Nc1ccccc1-c1ccc(Cl)c(F)c1)c1ccsc1Br [drawing 285] — higher, 100%
- O=C(Nc1ccccc1-c1ccc(F)c(Cl)c1)c1ccsc1I [drawing 286] — higher, 100%
- CC(C[Si](C)(C)C)c1cc(F)ccc1NC(=O)c1ccsc1I (stereo not shown) [drawing 287] — higher, 100%

Tested on: Alternaria solani
Test: Alternaria test (tomato)/protective
Assay type: in vivo
Settings: protective, application rate 750 g/ha, evaluation 7 days after inoculation
Description: [table] To produce a suitable preparation of active compound, 1 part by weight of active compound is mixed with the stated amounts of solvent and emulsifier, and the concentrate is diluted with water to the desired concentration. To test for protective activity, young tomato plants are sprayed with the preparation of active compound at the stated application rate. One day after the treatment, the plants are inoculated with a spore suspension of Alternaria solani and then remain at 100% relative humidity and at 20° C. for 24 hours. The plants then remain at 96% relative atmospheric humidity and a temperature of 20° C. Evaluation is carried out 7 days after the inoculation. 0% means an efficacy which corresponds to that of the control, whereas an efficacy of 100% means that no infection is observed.

Point of comparison: CC(C)CC(C)c1ccccc1NC(=O)c1ccoc1I (stereo not shown) [drawing 290], Efficacy in % 94%. Against it:
- CC(C)(C)CCc1ccccc1NC(=O)c1ccsc1I [drawing 288] — the same, 94%
- CC(C)CC(C)c1ccccc1NC(=O)c1ccsc1I (stereo not shown) [drawing 289] — higher, 100%

From patent publication US7745483B2, “2-Halofuryl-thienyl-3-carboxamides” (Bayer CropScience AG, priority 2004, dated 2010)
